Converted amounts (≈) assume the structure as drawn.

A short description of series [1]: Permeability in Caco-2 cells. The format is in vitro ADME. As to conditions: human, Caco-2, pH 6.5, 37° C.; for Papp A→B at 60 min: apical to basolateral, read-out: Permeability A-B (pH 6.5/7.4); for Papp B→A at 40 min: basolateral to apical, read-out: Permeability B-A (pH 6.5/7.4). How it is done:
Permeability tests were performed using Caco-2 cells, a colorectal epithelial adenocarcinoma cell line. These cells resemble intestinal epithelial cells in some aspects, such as the formation of a polarized monolayer, a well-defined brush border on the apical surface, and intercellular junctions.
The test is performed in both directions [apical to basolateral (A-B) and basolateral to apical (B-A)] through the cell monolayer, allowing an efflux ratio that provides an indicator as to whether a compound undergoes active efflux. Particle detection was performed with HPLC-MS/MS (mass spectrometry) according to the calculation of the peak area of the result. MS/MS was performed by combining two mass detectors in a single instrument.
A-B permeability was performed at pH 6.5/7.4 with incubation time of 0 and 60 minutes at 37° C. and B-A permeability was performed at pH 6.5/7.4 with incubation time of 0 and 40 minutes at 37° C.

For another series, the target named is CYP2B6 (Homo sapiens (Human), UniProt P20813). Put plainly: CYP inhibition, fluorogenic substrate. Format: in vitro ADME. Also on record: dose or concentration left out as unconfirmed. As to conditions: recombinant CYP2B6, pH 7.4. The text has this:
(§1) The CYP inhibition test used fluorogenic substrates specific to each CYP to check for inhibition thereof by detection of the expected metabolite using a fluorimetric method. Recombinant CYPs (CYP2B6, CYP2C8, […], CYP2C19, CYP2D6, CYP3A4) from specific humans for each cytochrome family, subfamily and polypeptide were used. The following were used as substrates: CEC (3-Cyano-7-Ethoxycoumarin) which forms as metabolite CHC (3-Cyano-7-Hydroxycoumarin); EFC (7-Ethoxy-4-trifluoromethyl coumarin), forming the metabolite HFC (7-Hydroxytri fluoromethylcoumarin); DBF (Dibenzylfluorescein) and its respective fluorescein metabolite; MFC (7-Methoxy-4-trifluoromethylcoumarin) which forms the metabolite HFC (7-Hydroxytrifluoromethylcoumarin); BFC (7-Benzyloxy-Trifluoromethylcoumarin) and its metabolite HFC; and BzRes (benzyloxyresorufin) to form resofurine. The detection of the metabolite was done with a fluorimetric method: analytical technique to identify and characterize the amount of substance by excitation using a beam of ultraviolet light and measurement of the emitted fluorescence. For detection, a 96-well plate was used. Each sample was tested in two wells (n=2) as standard condition. At least 04 wells were separated for vehicle (control). Compounds were tested at a concentration […], standard for this assay. They were preincubated with a NADPH generator system in a phosphate buffer (pH 7.4) for 5 minutes at 37° C. The reaction was started by adding the specific CYP enzymes, substrate and bovine serum albumin (BSA<0.4 mg/ml). Incubations were performed between 20-50 minutes at 37° C. according to the specific parameter of each fluorogenic substrate, for the evaluated component. Fluorescence at each well was detected before and after the incubation period.

In another series the target is CYP2C8 (Homo sapiens (Human), UniProt P10632). Put plainly: CYP inhibition, fluorogenic substrate. The format is in vitro ADME. Also noted: dose or concentration left out as unconfirmed. As to conditions: recombinant CYP2C8, pH 7.4.
Chain of CYP2C8 (P10632 whole entry): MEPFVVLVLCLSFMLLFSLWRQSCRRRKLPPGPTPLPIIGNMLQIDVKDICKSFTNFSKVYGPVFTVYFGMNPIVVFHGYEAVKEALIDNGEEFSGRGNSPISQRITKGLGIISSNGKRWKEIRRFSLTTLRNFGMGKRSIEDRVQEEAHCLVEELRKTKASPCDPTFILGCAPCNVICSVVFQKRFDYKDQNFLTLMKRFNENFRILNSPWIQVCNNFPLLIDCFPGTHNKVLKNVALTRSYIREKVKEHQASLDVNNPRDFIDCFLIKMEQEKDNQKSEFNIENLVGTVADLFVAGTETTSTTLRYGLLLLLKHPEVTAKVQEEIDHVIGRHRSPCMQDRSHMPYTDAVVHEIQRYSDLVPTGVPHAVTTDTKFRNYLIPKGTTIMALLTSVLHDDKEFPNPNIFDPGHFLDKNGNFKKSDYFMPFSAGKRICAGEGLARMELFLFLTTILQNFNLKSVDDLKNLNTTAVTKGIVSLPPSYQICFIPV
Source text: as §1

A further series has as its target CYP2C9 (Homo sapiens (Human), UniProt P11712). Put plainly: CYP inhibition, fluorogenic substrate. As to conditions: recombinant CYP2C9, pH 7.4. Also on record: dose or concentration left out as unconfirmed. The format is in vitro ADME.
Source text: as §1

The target of another series is CYP2D6 (Homo sapiens (Human), UniProt P10635). The experiment in a line: CYP inhibition, fluorogenic substrate. Also noted: dose or concentration left out as unconfirmed. As to conditions: recombinant CYP2D6, pH 7.4. Format: in vitro ADME.
Chain of CYP2D6 (P10635 whole entry): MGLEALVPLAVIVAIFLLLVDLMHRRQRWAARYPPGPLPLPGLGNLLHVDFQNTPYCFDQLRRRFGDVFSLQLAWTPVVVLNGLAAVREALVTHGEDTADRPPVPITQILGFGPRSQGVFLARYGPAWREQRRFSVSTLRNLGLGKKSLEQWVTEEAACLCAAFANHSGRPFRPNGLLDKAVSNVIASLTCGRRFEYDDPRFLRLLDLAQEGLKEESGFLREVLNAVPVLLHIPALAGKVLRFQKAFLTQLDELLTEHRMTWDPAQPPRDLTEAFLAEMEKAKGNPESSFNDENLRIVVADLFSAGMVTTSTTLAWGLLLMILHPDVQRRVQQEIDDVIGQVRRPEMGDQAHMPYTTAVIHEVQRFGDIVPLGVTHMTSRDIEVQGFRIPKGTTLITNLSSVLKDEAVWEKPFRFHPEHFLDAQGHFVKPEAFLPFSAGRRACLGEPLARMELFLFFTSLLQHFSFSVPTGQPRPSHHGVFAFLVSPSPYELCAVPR
Source text: as §1

In a further series the target is CYP2C19 (Homo sapiens (Human), UniProt P33261). The experiment in a line: CYP inhibition, fluorogenic substrate. Format: in vitro ADME. Also on record: dose or concentration left out as unconfirmed. To be noted: recombinant CYP2C19, pH 7.4.
Chain of CYP2C19 (P33261 whole entry): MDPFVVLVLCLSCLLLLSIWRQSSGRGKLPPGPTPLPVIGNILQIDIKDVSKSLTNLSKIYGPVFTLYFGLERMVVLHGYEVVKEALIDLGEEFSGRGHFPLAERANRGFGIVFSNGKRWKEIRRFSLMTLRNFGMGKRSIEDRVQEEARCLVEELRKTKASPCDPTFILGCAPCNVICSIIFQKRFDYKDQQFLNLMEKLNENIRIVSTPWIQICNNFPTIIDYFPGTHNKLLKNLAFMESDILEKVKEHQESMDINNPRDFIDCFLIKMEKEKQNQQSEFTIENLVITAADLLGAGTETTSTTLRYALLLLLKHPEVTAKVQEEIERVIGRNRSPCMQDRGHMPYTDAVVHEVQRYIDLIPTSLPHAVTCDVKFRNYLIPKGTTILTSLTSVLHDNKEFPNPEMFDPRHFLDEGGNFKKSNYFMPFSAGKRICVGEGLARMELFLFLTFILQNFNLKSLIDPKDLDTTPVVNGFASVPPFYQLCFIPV
Source text: as §1

In a further series the test system is human hepatocytes. The experiment in a line: Intrinsic clearance in cryopreserved human hepatocytes. Format: in vitro ADME. How it is done:
(§2) Cryopreserved hepatocytes from humans, rats (Sprague-Dawley males) and from mice (CD-1 males) were used for incubation at different times (0, 0.5, 1, 1.5, 2 hours) at 37° C. followed by HPLC-MS/MS detection. The aim was to verify the clearance time of the test substance on hepatocytes. The experiment was performed on a 96-well plate and the cryopreserved hepatocytes were thawed and resuspended in Krebs-Heinslet buffer(pH 7.3). The reaction was started by adding each test compound to each cell suspension and performing the incubation at the times indicated above. The reaction was quenched with addition of acetonitrile in the wells and detection by HPLC-MS/MS (mass spectrometry). MS/MS is performed by combining two mass detectors into a single instrument.

Series [2] is described as follows: Water solubility (shake-flask, PBS pH 7.4). Format: physicochemical. As to conditions: aqueous buffer, thermodynamic from solid. The procedure:
In addition, chromatographic purity (%) was defined as the calculation of the main peak area relative to the calculation of the peak area integrate of the standard HPLC calibration chromatogram. A standard calibration chromatogram was then generated for each compound tested along with a UV/VIS spectrum with maximal labeled absorbance. The shake-flash technique was used with constant stirring during incubation to keep a uniform medium for 24 hours in PBS at pH 7.4.

The test system of series [3] is mouse hepatocytes (CD-1 males). The experiment in a line: Intrinsic clearance in cryopreserved mouse hepatocytes. Format: in vitro ADME. How it is done:
as §2

The subject of series [4] is rat hepatocytes (Sprague-Dawley males). Put plainly: Intrinsic clearance in cryopreserved rat hepatocytes. The format is in vitro ADME. How it is done:
as §2

Series [5] is described as follows: Pharmacokinetics (PK) in rat, I.V. and oral. Format: in vivo, Wistar-Han rats. As to conditions: oral 10 mg/kg; for AUC(0-t): Wistar-Han, plasma. The procedure: […] The study lasted for 2 weeks (including acclimation time and study), in which the route of administration was made by injection into the caudal vein and oral gavage. The treatment was carried out in a single dose: I.V. group with dose of 1 mg/kg and Oral group with dose of 10 mg/kg. […] Clinical observations were made twice a day (morning and afternoon) in the pre-dose at the 08 time points defined in the protocol. Blood collection was performed after euthanasia in the pre-dose animals at 08 defined time points and at 24 hours post-dose. The pharmacokinetic analysis parameters detected for Group IV were: half-life (t½), drug concentration at time zero (C0), last measurable plasma concentration (AUClast), area under the plasma concentration curve extrapolation percentage (AUC % ext), area under the plasma concentration curve extrapolation to infinity (AUCinf), volume of distribution (Vz), steady state volume of distribution (Vss), clearance (CL) and mean residence time (MRT). The parameters evaluated for the Oral group were: bioavailability (F %), maximum concentration reached (Cmax), time to reach maximum plasma concentration (Tmax), last measurable plasma concentration (AUClast), area under the plasma concentration curve extrapolation percentage (AUC % ext), area under the plasma concentration curve extrapolation to infinity (AUCinf), area under the plasma concentration curve extrapolation to infinity versus dose (AUCinf/Dose), half-Life (t½), and mean residence time (MRT).

A further series has as its target CYP1A2 (Homo sapiens (Human), UniProt P05177). Put plainly: CYP inhibition, fluorogenic substrate. Format: in vitro ADME. Also noted: inhibition: dose or concentration left out as unconfirmed. As to conditions: human, recombinant CYP1A2, pH 7.4.
Source text: as §1

Another series has as its system melatonin receptors. As to conditions: Depreux et al. 1994; cited from earlier work.
The conditions of series [6]: oral, estimated, from literature; cited from earlier work.
For series [7] the following is noted: conjugate acid, J. Org. Chem. 1961; cited from earlier work.

Chain of CYP2B6 (P20813 whole entry): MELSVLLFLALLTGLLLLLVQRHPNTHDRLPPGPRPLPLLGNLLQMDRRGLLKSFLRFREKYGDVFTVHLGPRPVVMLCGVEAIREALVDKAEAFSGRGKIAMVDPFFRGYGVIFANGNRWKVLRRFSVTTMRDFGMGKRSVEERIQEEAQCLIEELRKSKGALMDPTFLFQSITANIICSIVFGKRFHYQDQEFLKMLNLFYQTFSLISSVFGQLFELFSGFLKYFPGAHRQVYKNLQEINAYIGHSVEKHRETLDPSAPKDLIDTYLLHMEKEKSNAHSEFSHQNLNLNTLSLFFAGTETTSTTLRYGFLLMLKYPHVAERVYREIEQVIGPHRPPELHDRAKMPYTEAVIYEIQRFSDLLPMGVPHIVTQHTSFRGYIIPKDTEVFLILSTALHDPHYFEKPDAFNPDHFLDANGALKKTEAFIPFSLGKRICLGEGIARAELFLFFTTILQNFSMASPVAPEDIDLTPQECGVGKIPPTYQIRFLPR
Chain of CYP2C9 (P11712 whole entry): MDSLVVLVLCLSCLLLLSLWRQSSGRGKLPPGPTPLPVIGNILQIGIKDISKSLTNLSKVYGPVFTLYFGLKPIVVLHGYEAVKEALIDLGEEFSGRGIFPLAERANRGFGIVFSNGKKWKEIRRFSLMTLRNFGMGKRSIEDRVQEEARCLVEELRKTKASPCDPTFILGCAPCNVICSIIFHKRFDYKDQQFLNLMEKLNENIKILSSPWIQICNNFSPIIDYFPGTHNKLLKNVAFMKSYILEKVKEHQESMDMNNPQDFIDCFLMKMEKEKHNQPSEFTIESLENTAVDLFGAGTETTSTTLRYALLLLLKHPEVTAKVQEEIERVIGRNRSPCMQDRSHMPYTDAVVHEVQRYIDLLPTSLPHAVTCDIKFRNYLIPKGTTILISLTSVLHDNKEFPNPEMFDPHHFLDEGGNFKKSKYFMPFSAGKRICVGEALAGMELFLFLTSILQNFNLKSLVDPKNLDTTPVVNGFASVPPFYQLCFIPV
Chain of CYP1A2 (P05177 whole entry): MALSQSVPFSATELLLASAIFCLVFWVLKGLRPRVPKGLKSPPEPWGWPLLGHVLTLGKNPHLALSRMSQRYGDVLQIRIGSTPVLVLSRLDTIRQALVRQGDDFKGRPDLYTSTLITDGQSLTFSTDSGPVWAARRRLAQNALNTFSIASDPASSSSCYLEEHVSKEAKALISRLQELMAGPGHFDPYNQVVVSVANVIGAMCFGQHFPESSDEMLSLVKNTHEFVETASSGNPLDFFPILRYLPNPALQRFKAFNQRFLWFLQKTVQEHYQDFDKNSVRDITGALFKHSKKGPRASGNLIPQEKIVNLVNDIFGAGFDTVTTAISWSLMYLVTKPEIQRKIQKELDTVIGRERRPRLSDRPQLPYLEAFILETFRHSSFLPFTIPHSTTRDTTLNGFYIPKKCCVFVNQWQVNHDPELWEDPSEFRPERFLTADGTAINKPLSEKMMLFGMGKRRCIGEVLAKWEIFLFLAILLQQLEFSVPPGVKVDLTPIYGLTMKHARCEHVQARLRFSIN

On to `CCOc1nc2ccc(OC)cc2n1CCCNC(C)=O` [IA2-120], for which the Papp A→B at 60 min in series [1] is 32.1 ×10⁻⁶ cm/s. Further, in series [1], the Papp B→A at 40 min is 29.5 ×10⁻⁶ cm/s. In addition, the inhibition at CYP2B6 was 7.9%; on CYP2C8, 9.1%; on CYP2C9 it was 26.7%; on CYP2D6, -0.3%; on CYP2C19, 6.4%. In addition, in the series on human hepatocytes, the “Intrinsic clearance half-life, Human” value is >2 h. In addition, the concentration in solution in series [2] (solubility at 24 h) came to 200 µM (≈ 58.3 µg/mL). For the same compound, the “Intrinsic clearance half-life, Mouse CD-1” value in series [3] is >2 h. For the same compound, the “Intrinsic clearance half-life, Rat Sprague-Dawley” value in series [4] worked out at 0.883 h.

`CCOc1nc2cc(Cl)c(OC)cc2n1CCNC(C)=O` [IA2-121]: the Papp A→B at 60 min in series [1] was determined as 58.2 ×10⁻⁶ cm/s. Further, the Papp B→A at 40 min in series [1] amounted to 32.1 ×10⁻⁶ cm/s. Also, the inhibition turned out to be 8.4% on CYP2B6; 7% at CYP2C8; 23.7% at CYP2C9; 0.9% at CYP2D6; 33.8% at CYP2C19. The “Intrinsic clearance half-life, Human” value with human hepatocytes was >2 h. In series [2], the solubility at 24 h is 200 µM (≈ 62.4 µg/mL). In series [3], the “Intrinsic clearance half-life, Mouse CD-1” value was >2 h. The “Intrinsic clearance half-life, Rat Sprague-Dawley” value in [4] was 0.867 h.

In [5], `COc1ccc2nc(OC)n(CCCNC(C)=O)c2c1` [IA2-140] came in with an exposure AUC(0-t) of 2440 ng·h/mL. Further, the Papp A→B at 60 min in series [1] turned out to be 27.3 ×10⁻⁶ cm/s. The Papp B→A at 40 min in series [1] came out at 55.1 ×10⁻⁶ cm/s. The inhibition is 0.4% on CYP2B6; -2.2% at CYP2C8; 2.6% on CYP2C9; 0.3% on CYP2D6; 7.2% at CYP2C19; -0.7% at CYP1A2. In the series on human hepatocytes, the “Intrinsic clearance half-life, Human” value is >2 h. In series [2], this compound yielded a solubility at 24 h of 197 µM (≈ 54.7 µg/mL). Further, in series [3], the “Intrinsic clearance half-life, Mouse CD-1” value was >2 h. The “Intrinsic clearance half-life, Rat Sprague-Dawley” value in [4] is >2 h.

Take `CCOc1nc2cc(Cl)c(OC)cc2n1CCCNC(C)=O` [IA2-142]: the Papp A→B at 60 min in series [1] came to 34 ×10⁻⁶ cm/s. Besides, in [1], the Papp B→A at 40 min amounted to 57.8 ×10⁻⁶ cm/s. In addition, the inhibition was 0.5% at CYP2B6; -4.7% at CYP2C8; 13% on CYP2C9; 6.9% on CYP2D6; 27.7% on CYP2C19. For the same compound, the “Intrinsic clearance half-life, Human” value in the series with human hepatocytes was >2 h. Moreover, in series [2], the concentration in solution (solubility at 24 h) was 181 µM (≈ 58.9 µg/mL). Further, the “Intrinsic clearance half-life, Mouse CD-1” value in series [3] is >2 h. The “Intrinsic clearance half-life, Rat Sprague-Dawley” value in [4] is >2 h.

Compound `COc1cc2c(cc1Cl)nc(OC)n2CCNC(C)=O` [IA2-143] returned an area under the curve AUC(0-t) in series [5] of 4050 ng·h/mL. This compound yielded an AUClast in series [5] of 4049 ng·h/mL. Besides, the Papp A→B at 60 min in series [1] worked out at 21.3 ×10⁻⁶ cm/s. Also, the Papp B→A at 40 min in series [1] worked out at 71.8 ×10⁻⁶ cm/s. Also, the inhibition at CYP2B6 was -1.1%; at CYP2C8, -13%; at CYP2C9 it was -9.6%; on CYP2D6, 0.8%; on CYP2C19, 10%; at CYP1A2, 1.4%. In [2], this compound yielded a solubility at 24 h of 197 µM (≈ 58.6 µg/mL). In addition, the “Intrinsic clearance half-life, Rat Sprague-Dawley” value in series [4] amounted to 1.8 h.

With `COc1ccc2ncn(CCNC(C)=O)c2c1` [N-[2-(6-methoxybenzimidazol-1-yl)-ethyl]acetamide], in the series on melatonin receptors, the “affinity, times lower than melatonin affinity” value is given as “approximately 3,200 times”.

Regarding `CCC(=O)NCC[C@@H]1CCc2ccc3c(c21)CCO3` [ramelteon], the absolute bioavailability in series [6] is reported as 1.8%.

As to `c1ccc2[nH]cnc2c1` [unsubstituted benzimidazole, benzimidazole], the pKa result in [7] is listed as “above 6”.

Values taken from US10781182B2, “Compounds, process for obtaining the compounds, pharmaceutical composition, use of the compounds and method for treating psychiatric disorders and/or sleep disorders” (ACHÉ LABORATÓRIOS FARMACÊUTICOS S.A., priority 2016, dated 2020).
